Assay results: US5849690A, “Anti-aggregatory peptides” (SmithKline Beecham Corporation, priority 1992, dated 1998)
Entries after “also recorded” stand apart in the source; their conditions may differ. Residues, ends and D or L forms follow the SMILES beside them.

Assays:
preformed human clot = assay: Human clot lysis assay (tPA induced fibrinolysis); type: biochemical
Method: The human clot lysis assay is used to assess the in vitro effect of anti-fibrotic peptide on tPA induced fibrinolysis. Outdated, citrated, human plasma from the American Red Cross is spun for 20 min. at 1300X g to remove remaining blood cells. A solution consisting of plasma, ^125 I-fibrinogen, calcium chloride and thrombin is added to 6 mm tissue culture plates and incubated 15 to 18 hrs. at 37° C. The next morning, each well is rinsed to release the clot. Clots are washed twice with Tris-buffered saline, containing heparin and albumin. Each clot is then added to 1.0 ml of the same plasma used to prepare the clot. tPA is added to tubes over a concentration range of 7 to 250 ng/ml (final concentration). Tubes are incubated at 37° C. with gentle rotation for 4 hrs. At the end of 4 hrs., a 25 μl aliquot is removed and counted to measure ^125 I released from the clot. All samples are run in triplicate.

[1] = test system: platelet aggregation/thrombus formation; assay: In vivo inhibition of thrombus formation, coronary thrombosis model in anesthetized dogs; parameters: species or system dog
Method: Briefly, a small Lexan® cylinder is placed around a mechanically damaged left circumflex coronary artery to produce a fixed partial obstruction of 80-90%. Under these conditions, platelets adhere to the exposed subendothelial collagen and aggregate at the obstructed site. Aggregation is assessed as a gradual reduction in blood flow over 2-3 min. until the thrombus is mechanically dislodged from the lumen of the obstructed vessel and coronary blood flow is restored. This process is allowed to repeat itself every 2-3 min. through the control period of the experiment.

| EC50 of tPA-induced clot lysis, control period (preformed human clot; % clot lysis at 4 hours, tPA alone) [µg/mL] | Molecule | effect upon tPA promoted human clot lysis in vitro (preformed human clot; 1 mM peptide, listed as Ac-RGDS-NH2) | inhibition of thrombus formation (mean coronary blood flow) ([1]; 400 mM at 0.013 ml/min.) | inhibition of thrombus formation (mean coronary blood flow) ([1]; 400 mM at 0.026 ml/min. infusion, listed as Ac-RGDS-NH2) | inhibition of thrombus formation (mean coronary blood flow) ([1]; 400 mM at 0.052 ml/min. infusion rate) | inhibition of thrombus formation (coronary blood flow) ([1]; coronary infusion 400 mM at 0.1 ml/min, listed as Ac-RGDS-NH2) |
| --- | --- | --- | --- | --- | --- | --- |
|  | CC(=O)N[C@@H](CCCNC(=N)N)C(=O)NCC(=O)N[C@@H](CC(=O)O)C(=O)N[C@@H](CO)C(N)=O [Example 27, N^α -Ac-Arg-Gly-Asp-Ser-NH2] (Ac-RGDS-NH2) | no interaction; also recorded: no effect | partial inhibition with prolongation of time to complete blockage | moderate inhibition with spontaneous sloughing off of the thrombus; also recorded: moderate inhibition with spontaneous sloughing off of thrombi | complete inhibition of thrombus formation | complete inhibition of thrombus formation |
| 31.5 ± 9.9 | tPA(MT2N3): tissue plasminogen activator (tPA), fibrinolytic agent used to induce clot lysis |  |  |  |  |  |
